Results: ChEMBL document CHEMBL1133775, “Potent and selective indolomorphinan antagonists of the kappa-opioid receptor” (J Med Chem, 2000)

Legend:
[1] = target: T1, Opioid receptors; delta & kappa (Homo sapiens) (UniProt P41145+P41143); assay: Selectivity ratio, ratio of Ke value of delta to kappa opioid receptor; assay type: protein assay
[2] = target: Kappa-type opioid receptor (Cavia porcellus) (UniProt P41144); assay: Opioid receptor kappa 1 Antagonism (100 nM) is expressed as (Ke = [antagonist] / (IC50 ratio -1); assay type: functional
[3] = Selectivity ratio, ratio of Ke value of mu to kappa opioid receptor
[4] = target: Mu-type opioid receptor (Cavia porcellus) (UniProt P97266); assay: Opioid receptor mu 1 Antagonism (100 nM) is expressed as (Ke = [antagonist] / (IC50 ratio -1); assay type: functional
[5] = target: Mu-type opioid receptor (Cavia porcellus) (UniProt P97266); assay: Ratio of the IC50 of mu receptor agonist, Morphine in the presence of compound in GPI divided by the control IC50.; assay type: functional
[6] = target: Delta-type opioid receptor (Mus musculus) (UniProt P32300); assay: Ratio of the IC50 of delta receptor agonist, [D-Ala-2, D-Leu5]-enkephalin in the presence of compound in MVD divided by the control IC50.; assay type: functional
[7] = target: Delta-type opioid receptor (Mus musculus) (UniProt P32300); assay: Opioid receptor delta 1 Antagonism (100 nM) is expressed as (Ke = [antagonist] / (IC50 ratio -1); assay type: functional
[8] = target: Kappa-type opioid receptor (Cavia porcellus) (UniProt P41144); assay: Ratio of the IC50 of Kappa receptor agonist, ethylketazocine in the presence of compound in GPI divided by the control IC50.; assay type: functional
[9] = target: Delta-type opioid receptor (Rattus norvegicus, UniProt P33533); assay: Binding affinity on HEK293 cells transiently transfected with plasmids encoding the rat Opioid receptor delta 1; assay type: cell-based
[10] = target: Kappa-type opioid receptor (Rattus norvegicus, UniProt P34975); assay: Binding affinity on HEK293 cells transiently transfected with plasmids encoding the rat Opioid receptor kappa 1; assay type: cell-based
[11] = Selectivity ratio, ratio of Ke value of Kappa to Delta opioid receptor
[12] = target: Mu-type opioid receptor (Rattus norvegicus, UniProt P33535); assay: Binding affinity on HEK293 cells transiently transfected with plasmids encoding the rat Opioid receptor mu 1; assay type: cell-based
[13] = target: T1, Opioid receptors; delta & kappa (Homo sapiens); assay: Selectivity ratio, ratio of binding affinity of delta to kappa opioid receptor; assay type: protein assay
[14] = target: T2, Opioid receptors; mu & kappa (Homo sapiens) (UniProt P41145+P35372); assay: Selectivity ratio, ratio of binding affinity of mu to kappa opioid receptor; assay type: protein assay
[15] = target: T2, Opioid receptors; mu & kappa (Homo sapiens); assay: Selectivity ratio, ratio of Ke value of Kappa to mu opioid receptor; assay type: protein assay
[16] = target: T1, Opioid receptors; delta & kappa (Homo sapiens); assay: Selectivity ratio, ratio of Ke value of Kappa to Delta opioid receptor (extrapolated value); assay type: protein assay
[17] = target: T1, Opioid receptors; delta & kappa (Homo sapiens); assay: Selectivity ratio, ratio of Ke value of kappa to delta opioid receptor (extrapolated value); assay type: protein assay

Chain of Mu-type opioid receptor (P33535 whole entry): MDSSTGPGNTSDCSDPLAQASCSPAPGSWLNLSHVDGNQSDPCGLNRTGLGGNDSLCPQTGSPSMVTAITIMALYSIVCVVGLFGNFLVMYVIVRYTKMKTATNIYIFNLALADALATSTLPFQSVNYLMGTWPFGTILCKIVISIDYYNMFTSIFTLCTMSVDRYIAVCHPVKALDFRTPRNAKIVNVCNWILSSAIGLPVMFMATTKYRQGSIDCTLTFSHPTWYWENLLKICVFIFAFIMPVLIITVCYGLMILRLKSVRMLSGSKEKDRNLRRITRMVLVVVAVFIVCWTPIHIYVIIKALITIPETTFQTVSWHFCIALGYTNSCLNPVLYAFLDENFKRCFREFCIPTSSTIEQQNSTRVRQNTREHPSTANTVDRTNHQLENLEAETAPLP
T2 sequence (P35372 whole entry, looked up): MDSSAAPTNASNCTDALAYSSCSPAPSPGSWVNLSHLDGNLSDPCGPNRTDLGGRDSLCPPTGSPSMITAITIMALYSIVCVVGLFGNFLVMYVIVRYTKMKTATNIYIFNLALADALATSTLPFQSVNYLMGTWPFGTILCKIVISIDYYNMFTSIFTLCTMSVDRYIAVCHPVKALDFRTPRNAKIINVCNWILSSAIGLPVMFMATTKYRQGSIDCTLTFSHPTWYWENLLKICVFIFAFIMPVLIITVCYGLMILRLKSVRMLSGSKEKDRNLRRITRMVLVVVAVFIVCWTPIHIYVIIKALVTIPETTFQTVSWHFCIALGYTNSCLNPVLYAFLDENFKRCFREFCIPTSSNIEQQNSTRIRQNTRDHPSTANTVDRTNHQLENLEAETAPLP
T2 sequence (P41145 whole entry, looked up): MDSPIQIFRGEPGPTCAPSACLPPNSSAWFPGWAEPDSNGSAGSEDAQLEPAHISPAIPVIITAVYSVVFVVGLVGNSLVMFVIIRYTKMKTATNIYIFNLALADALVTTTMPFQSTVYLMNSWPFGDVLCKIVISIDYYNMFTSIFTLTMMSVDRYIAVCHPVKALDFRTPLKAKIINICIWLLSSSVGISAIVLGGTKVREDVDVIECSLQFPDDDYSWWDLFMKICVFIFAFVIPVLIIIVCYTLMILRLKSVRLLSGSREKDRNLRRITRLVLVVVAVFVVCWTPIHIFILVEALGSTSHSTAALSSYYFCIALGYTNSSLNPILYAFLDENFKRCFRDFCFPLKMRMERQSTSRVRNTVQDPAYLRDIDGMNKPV
Chain of Mu-type opioid receptor (Cavia porcellus) (P97266 whole entry): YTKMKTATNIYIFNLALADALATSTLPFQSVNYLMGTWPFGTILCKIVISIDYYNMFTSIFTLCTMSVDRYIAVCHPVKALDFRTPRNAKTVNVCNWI
T1 sequence (P41143 whole entry, looked up): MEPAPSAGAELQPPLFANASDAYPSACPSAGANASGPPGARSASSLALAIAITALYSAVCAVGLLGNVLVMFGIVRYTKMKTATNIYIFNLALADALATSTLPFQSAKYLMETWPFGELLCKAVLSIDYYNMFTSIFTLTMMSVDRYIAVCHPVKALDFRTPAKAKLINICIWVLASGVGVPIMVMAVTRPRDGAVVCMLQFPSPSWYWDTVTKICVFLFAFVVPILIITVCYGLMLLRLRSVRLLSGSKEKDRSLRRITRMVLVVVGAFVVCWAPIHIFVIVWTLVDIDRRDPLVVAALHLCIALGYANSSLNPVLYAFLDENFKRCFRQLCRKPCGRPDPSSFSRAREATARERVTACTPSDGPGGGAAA
T1 sequence (P41145 whole entry, looked up): as the sequence (P41145 whole entry, looked up) above
Chain of Kappa-type opioid receptor (Cavia porcellus) (P41144 whole entry): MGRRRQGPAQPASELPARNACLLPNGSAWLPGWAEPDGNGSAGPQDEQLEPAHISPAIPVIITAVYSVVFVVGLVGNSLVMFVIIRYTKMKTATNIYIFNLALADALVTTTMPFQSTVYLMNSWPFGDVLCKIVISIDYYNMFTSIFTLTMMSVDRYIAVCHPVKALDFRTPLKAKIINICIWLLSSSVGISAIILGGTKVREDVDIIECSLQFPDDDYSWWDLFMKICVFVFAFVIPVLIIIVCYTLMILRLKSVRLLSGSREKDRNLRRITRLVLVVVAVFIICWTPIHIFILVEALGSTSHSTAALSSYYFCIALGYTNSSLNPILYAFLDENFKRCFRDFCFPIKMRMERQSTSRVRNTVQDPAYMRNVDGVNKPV
Chain of Delta-type opioid receptor (P33533 whole entry): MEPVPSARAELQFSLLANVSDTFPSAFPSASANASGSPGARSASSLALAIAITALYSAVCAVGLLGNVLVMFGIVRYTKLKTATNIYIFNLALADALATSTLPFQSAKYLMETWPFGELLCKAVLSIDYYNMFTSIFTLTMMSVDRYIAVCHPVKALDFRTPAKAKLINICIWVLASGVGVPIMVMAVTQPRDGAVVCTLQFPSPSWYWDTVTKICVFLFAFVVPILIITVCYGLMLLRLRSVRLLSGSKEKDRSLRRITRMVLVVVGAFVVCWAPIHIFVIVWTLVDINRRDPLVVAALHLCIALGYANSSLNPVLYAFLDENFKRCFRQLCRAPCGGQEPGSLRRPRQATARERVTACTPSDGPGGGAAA
Chain of Kappa-type opioid receptor (P34975 whole entry): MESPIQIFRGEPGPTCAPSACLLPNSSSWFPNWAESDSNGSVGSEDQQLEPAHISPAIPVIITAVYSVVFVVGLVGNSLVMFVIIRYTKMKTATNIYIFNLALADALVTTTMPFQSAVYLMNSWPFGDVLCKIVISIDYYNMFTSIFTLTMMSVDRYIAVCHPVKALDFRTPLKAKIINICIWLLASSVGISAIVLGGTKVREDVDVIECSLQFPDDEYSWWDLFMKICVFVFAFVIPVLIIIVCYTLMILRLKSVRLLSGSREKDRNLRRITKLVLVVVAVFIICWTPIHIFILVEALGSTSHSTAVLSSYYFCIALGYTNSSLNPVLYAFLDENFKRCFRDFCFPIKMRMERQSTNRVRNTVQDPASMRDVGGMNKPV
Chain of Delta-type opioid receptor (Mus musculus) (P32300 whole entry): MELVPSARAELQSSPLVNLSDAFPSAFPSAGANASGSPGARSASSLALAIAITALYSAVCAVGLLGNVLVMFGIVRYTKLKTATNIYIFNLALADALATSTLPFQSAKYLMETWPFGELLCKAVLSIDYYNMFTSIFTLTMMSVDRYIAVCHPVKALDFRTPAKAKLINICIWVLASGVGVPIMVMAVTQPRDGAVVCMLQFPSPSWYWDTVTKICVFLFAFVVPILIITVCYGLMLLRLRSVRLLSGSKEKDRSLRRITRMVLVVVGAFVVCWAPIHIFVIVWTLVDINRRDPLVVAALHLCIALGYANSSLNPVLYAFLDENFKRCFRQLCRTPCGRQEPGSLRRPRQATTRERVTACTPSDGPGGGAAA

SMILES | Ratio [1] | Ke [2] [nM] | Ratio [3] | Ke [4] [nM] | IC50 ratio [5] | IC50 ratio [6] | Ke [7] [nM] | IC50 ratio [8] | Ki [9] [nM] | Ki [10] [nM] | Ratio [11] | Ki [12] [nM] | Ratio [13] | Ratio [14] | Ratio [15] | Ratio [16] | Ratio [17]
N#CN/C(N)=N/Cc1ccc2[nH]c3c(c2c1)C[C@@]1(O)C2Cc4ccc(O)c5c4[C@@]1(CCN2CC1CC1)[C@H]3O5 | 2 | 2.9 | 6.2 | 18 | 6.7 | 17.9 | 5.9 | 35.4 | – | – | – | – | – | – | – | – | –
Oc1ccc2c3c1O[C@H]1c4[nH]c5c(c4C[C@@]4(O)[C@@H](C2)N(CC2CC2)CC[C@]314)C[C@@]1(O)[C@H]2Cc3ccc(O)c4c3[C@@]1(CCN2CC1CC1)[C@H]5O4 [NORBINALTORPHIMINE] | – | – | – | – | – | – | – | – | 41.5 | 0.244 | – | – | – | – | – | – | –
CC(=N)Nc1ccc2[nH]c3c(c2c1)C[C@@]1(O)C2Cc4ccc(O)c5c4[C@@]1(CCN2CC1CC1)[C@H]3O5 | – | 1 | 15 | 16 | 7.5 | 1.9 | – | 99.4 | – | – | 52 | – | – | – | – | – | –
CN1CC[C@]23c4c5ccc(O)c4O[C@H]2c2[nH]c4ccc(N=C(N)N)cc4c2C[C@@]3(O)C1C5 | – | – | – | – | – | – | – | – | > 10000 | 2.83 | – | 876 | – | – | – | – | –
C[N+](C)(C)Cc1ccc2[nH]c3c(c2c1)C[C@@]1(O)C2Cc4ccc(O)c5c4[C@@]1(CCN2CC1CC1)[C@H]3O5 | – | 0.7 | 6.2 | 4 | 25.8 | 0.79 | – | 154 | 78.4 | 0.354 | 154 | 12.8 | 221 | 36 | – | – | –
NCc1ccc2[nH]c3c(c2c1)C[C@@]1(O)C2Cc4ccc(O)c5c4[C@@]1(CCN2CC1CC1)[C@H]3O5 | 0.5 | 34 | 1.8 | 61 | 2.6 | 6.4 | 18 | 3.9 | – | – | – | – | – | – | – | – | –
N=C(N)/N=C(\N)Nc1ccc2[nH]c3c(c2c1)C[C@@]1(O)C2Cc4ccc(O)c5c4[C@@]1(CCN2CC1CC1)[C@H]3O5 | – | 0.2 | 74 | 14 | 7.9 | 0.41 | – | 512 | – | – | 512 | – | 478 | 95 | – | – | –
N/C(S)=N/c1ccc2[nH]c3c(c2c1)C[C@@]1(O)C2Cc4ccc(O)c5c4[C@@]1(CCN2CC1CC1)[C@H]3O5 | – | 7.2 | 5.3 | 38 | 3.6 | 1.3 | – | 14.9 | – | – | 12 | – | – | – | – | – | –
CN(C)c1ccc2[nH]c3c(c2c1)C[C@@]1(O)C2Cc4ccc(O)c5c4[C@@]1(CCN2CC1CC1)[C@H]3O5 | – | 6.8 | 5.3 | 36 | 3.8 | 2.4 | – | 15.8 | – | – | 6.6 | – | – | – | – | – | –
CN(C)CCc1ccc2[nH]c3c(c2c1)C[C@@]1(O)C2Cc4ccc(O)c5c4[C@@]1(CCN2CC1CC1)[C@H]3O5 | – | 3.2 | – | – | 2.4 | 1.8 | – | 32 | – | – | 18 | – | – | – | 13 | – | –
C[N+](C)(C)c1ccc2[nH]c3c(c2c1)C[C@@]1(O)C2Cc4ccc(O)c5c4[C@@]1(CCN2CC1CC1)[C@H]3O5 | – | 3.1 | – | – | 2.7 | 3.6 | – | 33.3 | – | – | 9.1 | – | – | – | 13 | – | –
N=C(N)Nc1ccc2[nH]c3c(c2c1)C[C@@]1(O)[C@H]2Cc4ccc(O)c5c4[C@@]1(CCN2CC1CC1)[C@H]3O5 [GUANIDINONALTRINDOLE] | – | – | 193 | – | – | – | – | – | 46.2 | 0.18 | – | 22.5 | 257 | 125 | – | 366 | –
CN1CC[C@]23c4c5ccc(O)c4O[C@H]2c2[nH]c4ccc(NC(=N)N)cc4c2C[C@@]3(O)C1C5 | – | 17 | – | – | 1.1 | 1.7 | – | 6.8 | – | – | 4.1 | – | > 3530 | 310 | 6.3 | – | –
N=C(N)NCc1ccc2[nH]c3c(c2c1)C[C@@]1(O)[C@H]2Cc4ccc(O)c5c4[C@@]1(CCN2CC1CC1)[C@H]3O5 | – | 0.6 | 19 | 11 | 10.3 | 0.88 | – | 172 | 30.8 | 0.745 | 172 | 66 | 41 | 89 | – | – | –
CC(=N)NCc1ccc2[nH]c3c(c2c1)C[C@@]1(O)C2Cc4ccc(O)c5c4[C@@]1(CCN2CC1CC1)[C@H]3O5 | – | 6.1 | 1.4 | 8.8 | 12.4 | 0.88 | – | 17.3 | – | – | 17.3 | – | – | – | – | – | –
N#CN=C(N)Nc1ccc2[nH]c3c(c2c1)C[C@@]1(O)C2Cc4ccc(O)c5c4[C@@]1(CCN2CC1CC1)[C@H]3O5 | – | – | – | – | – | – | – | – | 9.46 | 4.46 | – | 89.8 | – | – | – | – | –
NCCc1ccc2[nH]c3c(c2c1)C[C@@]1(O)C2Cc4ccc(O)c5c4[C@@]1(CCN2CC1CC1)[C@H]3O5 | – | 2.1 | – | – | 3.2 | 2.3 | – | 48.1 | – | – | 21 | – | – | – | 15 | – | –
CC(=N)NCCc1ccc2[nH]c3c(c2c1)C[C@@]1(O)C2Cc4ccc(O)c5c4[C@@]1(CCN2CC1CC1)[C@H]3O5 | 65 | 0.3 | 27 | 7.6 | 14.1 | 6.4 | – | 72.1 | – | – | – | – | – | – | – | – | –
N=C(N)Cc1ccc2[nH]c3c(c2c1)C[C@@]1(O)C2Cc4ccc(O)c5c4[C@@]1(CCN2CC1CC1)[C@H]3O5 | – | 2.2 | – | – | 2.1 | 1.8 | – | 46.7 | 33 | 0.214 | 26 | 40.8 | – | – | – | – | –
Nc1ccc2[nH]c3c(c2c1)C[C@@]1(O)C2Cc4ccc(O)c5c4[C@@]1(CCN2CC1CC1)[C@H]3O5 | – | – | – | 57 | 2.8 | 10.3 | – | 4 | – | – | 0.4 | – | – | – | 1.5 | – | –
C[N+](C)(C)CCc1ccc2[nH]c3c(c2c1)C[C@@]1(O)C2Cc4ccc(O)c5c4[C@@]1(CCN2CC1CC1)[C@H]3O5 | – | 0.4 | 13 | 5.7 | 18.5 | 2.5 | – | 48 | – | – | – | – | – | – | – | – | 96
CSC(=N)Nc1ccc2[nH]c3c(c2c1)C[C@@]1(O)C2Cc4ccc(O)c5c4[C@@]1(CCN2CC1CC1)[C@H]3O5 | – | 0.5 | 33 | 16 | 7.4 | 1.9 | – | 43.6 | – | – | – | – | – | – | – | 115 | –
N=C(N)c1ccc2[nH]c3c(c2c1)C[C@@]1(O)C2Cc4ccc(O)c5c4[C@@]1(CCN2CC1CC1)[C@H]3O5 | – | 0.7 | 22 | 16 | 7.2 | 0.3 | – | 142 | 112 | 0.529 | 142 | 65.7 | – | – | – | – | –
N=C(N)NCCc1ccc2[nH]c3c(c2c1)C[C@@]1(O)[C@H]2Cc4ccc(O)c5c4[C@@]1(CCN2CC1CC1)[C@H]3O5 | 2 | 1.7 | 7.3 | 12 | 9.1 | 30.1 | 3.4 | 59.8 | 10.7 | 0.507 | – | 33.4 | 21 | 66 | – | – | –
N#CN/C(N)=N/c1ccc2[nH]c3c(c2c1)C[C@@]1(O)C2Cc4ccc(O)c5c4[C@@]1(CCN2CC1CC1)[C@H]3O5 | 2.9 | – | 5.1 | – | 7.2 | 12 | – | 33 | – | – | – | – | 2 | 20 | – | – | –
N=C(N)N=C(N)Nc1ccc2[nH]c3c(c2c1)C[C@@]1(O)C2Cc4ccc(O)c5c4[C@@]1(CCN2CC1CC1)[C@H]3O5 | – | – | – | – | – | – | – | – | 108 | 0.226 | – | 21.5 | – | – | – | – | –
CN(C)Cc1ccc2[nH]c3c(c2c1)C[C@@]1(O)C2Cc4ccc(O)c5c4[C@@]1(CCN2CC1CC1)[C@H]3O5 | – | 0.8 | 12 | 9.8 | 11.2 | 1.4 | – | 125 | 15.7 | 0.823 | 87 | 36 | 19 | 44 | – | – | –
